Source: patent US9839642B2, “Beta-tetrazolyl-propionic acids as metallo-beta-lactamase inhibitors” (priority 2014, dated 2017)
Like-named read-outs stand apart in the source and are kept apart here.

How the values were obtained:
NDM-1 = NDM-1 (Klebsiella pneumoniae, UniProt C7C422); experiment: Enzyme activity: determination of IC50, fluorescence assay with CCF2-FA substrate; format: biochemical; conditions: CCF2-FA 1.25 μM, 2 hours at 25° C., read-out: NDM1 IC50
Protocol: (§1) Enzyme Activity: Determination of IC50
(§2) The Class B enzyme activities were measured in the presence of a compound of the EXAMPLES as a test inhibitor in a fluorescence assay against a commercially available substrate consisting of a cephalosporin core linking 7-hydroxycoumarin to fluorescein (CCF2-FA; Life Technologies, Grand Island, N.Y.). The enzyme (NDM-1, IMP-1 or VIM-1) and the substrate were diluted in 100 mM KH2PO4 buffer (pH 7) containing 0.005% Tween-20 and 10 μM ZnSO4. In the assay, the final concentration of enzyme was 1 pM, 2 pM and 30 pM for NDM-1, IMP-1 and VIM-1, respectively, and the final concentration of CCF2-FA was 1.25 μM. The test inhibitor was dissolved in DMSO and diluted 1:50 in the assay, resulting in a final concentration range of 20 μM to 0.00063 μM. In a 384-well microplate, the test inhibitor was incubated with the metallo-β-lactamase enzyme and the substrate for 2 hours at 25° C. Fluorescence at 460 nm following excitation at 405 nm was measured. The IC50 value was determined from semi-logarithmic plots of enzyme inhibition versus inhibitor concentration, with a curve generated using a 4-parameter fit.

VIM-1 = VIM-1 (Pseudomonas aeruginosa, UniProt A0A0F7KYQ8); experiment: as above; format: biochemical; conditions: CCF2-FA 1.25 μM, 2 hours at 25° C., read-out: VIM1 IC50
Protocol: as §1, §2

IMP-1 = IMP-1 (Serratia marcescens, UniProt P52699); experiment: as above; format: biochemical; conditions: CCF2-FA 1.25 μM, 2 hours at 25° C., read-out: IMP1 IC50
Protocol: as §1, §2

[1] = system: Klebsiella pneumoniae expressing VIM-1 (IHMA599644); experiment: Antibiotic potentiation activity: synergistic concentration (MITC95) with imipenem, growth by OD600; format: cell-based
Protocol: (§3) Antibiotic Potentiation Activity: Determination of Synergistic Concentration
(§4) The bacterial strains tested included the clinical strains Escherichia coli expressing NDM-1 (CLB30005, CLB30016), Serratia marcescens expressing IMP-1 (CL5741), and Klebsiella pneumoniae expressing VIM-1 (IHMA599644). Inhibitor activity was measured in the presence and absence of imipenem or ceftazidime in a 384-well microplate.
(§5) The clinical strains CLB30016, CL5741, and IHMA599644 were grown on trypticase soy agar containing 5% sheep's blood. The clinical strain CLB30005 was grown on Mueller Hinton broth agar containing 8 μg/ml imipenem. The bacteria on agar plates were incubated overnight at 35° C. with ambient humidity (achieved from an open pan of water inside the incubator). The following day, individual colonies from each clinical strain were picked and resuspended in 5 ml saline to attain an OD600 of 0.14, 0.11, 0.15 and 0.13, for CLB30005, CLB30016, CL5741 and IHMA599644, respectively. These were further diluted 1:100 into 1.1×CAMHB and used to inoculate the test wells as described below.
(§6) Imipenem in 10 mM 3-(N-morpholino)propanesulfonic acid (MOPS, pH 7) was stored in single use aliquots at −80° C. Test inhibitors were dissolved in DMSO and diluted 1:50 in the assay, resulting in a final concentration range of 200 μM to 0.195 μM. On the day of the assay, 4 μl of antibiotic was added to 45 μl of bacteria followed by 1 μl of test compound and mixed by pipetting and with an orbital shaker. The concentration of antibiotic used in the assay was 1 μg/ml or 4 μg/ml. Microplates were covered and incubated at 35° C. for 22 hours to 24 hours. At the end of the incubation, absorbance was determined using a spectrophotometer. The synergistic concentration of MBLI was determined by identifying the lowest concentration of test compound in the presence of a given concentration of antibiotic that was required to inhibit 95% of the growth of the bacteria.
(§7) Representative compounds of the present invention display a synergistic effect. For example, representative compounds of EXAMPLES 1-456 were determined to restore susceptibility to imipenem at concentrations of 200 μM or less.

[2] = system: Serratia marcescens expressing IMP-1 (CL5741); experiment: as above; format: cell-based
Protocol: as §3, §4, §5, §6, §7

[3] = system: Escherichia coli expressing NDM-1 (CLB30016); experiment: as above; format: cell-based
Protocol: as §3, §4, §5, §6, §7

[4] = K. pneumoniae IHMA599644 (VIM-1), 95% inhibition of growth
[5] = S. marcescens CL5741 (IMP-1), 95% inhibition of growth
[6] = E. coli CLB30016 (NDM-1), 95% inhibition of growth
[7] = 95% inhibition of bacterial growth, strain IHMA599644
[8] = 95% inhibition of bacterial growth, strain CL5741
[9] = 95% inhibition of bacterial growth, strain CLB30016

NDM-1, sequence (C7C422 29-270, looked up, species assumed): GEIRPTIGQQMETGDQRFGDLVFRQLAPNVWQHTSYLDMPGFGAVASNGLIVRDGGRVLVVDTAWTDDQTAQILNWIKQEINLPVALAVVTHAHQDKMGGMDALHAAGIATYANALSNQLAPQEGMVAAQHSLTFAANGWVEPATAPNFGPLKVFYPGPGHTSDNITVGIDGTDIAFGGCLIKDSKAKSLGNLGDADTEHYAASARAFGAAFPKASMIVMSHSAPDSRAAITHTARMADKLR
IMP-1, sequence (P52699 19-246, looked up, species assumed): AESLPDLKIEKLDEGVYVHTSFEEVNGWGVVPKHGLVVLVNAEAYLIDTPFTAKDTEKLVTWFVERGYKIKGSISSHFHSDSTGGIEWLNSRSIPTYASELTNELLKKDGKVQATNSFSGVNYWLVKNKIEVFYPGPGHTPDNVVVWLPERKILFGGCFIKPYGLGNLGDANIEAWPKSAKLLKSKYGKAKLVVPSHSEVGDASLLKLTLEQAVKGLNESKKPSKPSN

SMILES | IC50 (NDM-1; NDM-1 enzyme 1 pM) [nM] | IC50 (VIM-1; VIM-1 enzyme 30 pM) [nM] | IC50 (IMP-1; IMP-1 enzyme 2 pM) [nM] | VIM1 KP599644 MITC95 [1, 4] [µM] | IMP1 SM5741 MITC95 [2, 5] [µM] | NDM1 EC30016 MITC95 [3, 6] [µM] | IC50 (NDM-1; enzyme 1 pM) [nM] | IC50 (VIM-1; enzyme 30 pM) [nM] | IC50 (IMP-1; enzyme 2 pM) [nM] | VIM1 KP599644 MITC95 [1, 7] [µM] | IMP1 SM5741 MITC95 [2, 8] [µM] | NDM1 EC30016 MITC95 [3, 9] [µM]
CCC[C@H](C(=O)O)[C@H](Cc1ccc(C2CCNCC2O)cc1)c1nnn[nH]1 (mixture of isomers) [Example 416, (2S)-2-((1S)-2-(4-(3-hydroxypiperidin-4-yl)phenyl)-1-(1H-tetrazol-5-yl)ethyl)pentanoic acid] | 280 | 20.8 | 1140 | 25 | 25 | 25 |  |  |  |  |  | 
CCC[C@H](C(=O)O)C(Cc1cccc(C(F)(F)F)c1)c1nnn[nH]1 (stereo in doubt) [Example 267, (2S)-2-{(1S)-1-(1H-tetrazol-5-yl)-2-[3-(trifluoromethyl)phenyl]ethyl}pentanoic acid] | 14 | 0.86 | 280 | 18.8 | 9.4 | 9.4 |  |  |  |  |  | 
CCC[C@H](C(=O)O)C(Cc1ccccc1C(F)(F)F)c1nnn[nH]1 (stereo in doubt) [Example 268, (2S)-2-{(1S)-1-(1H-tetrazol-5-yl)-2-[2-(trifluoromethyl)phenyl]ethyl}pentanoic acid] | 6.4 | 3.2 | 2700 | 12.5 | 75 | 7.8 |  |  |  |  |  | 
CCC[C@H](C(=O)O)[C@H](Cc1cccc(Br)c1)c1nn[nH]n1 [Example 16, (S)-2-((S)-2-(3-bromophenyl)-1-(2H-tetrazol-5-yl)ethyl)pentanoic acid] |  |  |  |  |  |  | 12 | 0.75 | 120 | 9.4 | 4.7 | 9.4
CC(C)C[C@H](C(=O)O)[C@H](Cc1ccc(Br)c(F)c1)c1nnn[nH]1 [Example 23, (2S)-2-[(1S)-2-(4-bromo-3-fluorophenyl)-1-(1H-tetrazol-5-yl)ethyl]-4-methylpentanoic acid] |  |  |  |  |  |  | 20 | 1.4 | 88 | 31 | 3.1 | 6.3
CC(C)C[C@H](C(=O)O)[C@H](Cc1cc(F)cc(Br)c1)c1nnn[nH]1 [Example 24, (2S)-2-[(1S)-2-(3-bromo-5-fluorophenyl)-1-(1H-tetrazol-5-yl)ethyl]-4-methylpentanoic acid] |  |  |  |  |  |  | 18 | 0.6 | 230 | 12.5 | 4.7 | 9.4
CC(C)C[C@H](C(=O)O)[C@H](Cc1ccc(Br)cc1)c1nnn[nH]1 [Example 25, (2S)-2-[(1S)-2-(4-bromophenyl)-1-(1H-tetrazol-5-yl)ethyl]-4-methylpentanoic acid] |  |  |  |  |  |  | 32 | 2.6 | 87 | 12.5 | 3.1 | 4.7
CC(C)[C@H](C(=O)O)[C@H](Cc1csc(C2=CCNC2)n1)c1nnn[nH]1 [Example 71, (2S,3S)-4-(2-(2,5-dihydro-1H-pyrrol-3-yl)thiazol-4-yl)-2-isopropyl-3-(1H-tetrazol-5-yl)butanoic acid] |  |  |  |  |  |  | 570 | 120 |  | 25 | >200 | 12.5
CCC[C@H](C(=O)O)[C@H](Cc1cnc(N2CCNCC2)s1)c1nnn[nH]1 [Example 120, (S)-2-((S)-2-(2-(piperazin-1-yl)thiazo1-5-yl)-1-(1H-tetrazol-5-yl)ethyl)pentanoic acid] |  |  |  |  |  |  | 1200 | 8.5 |  | 37 | >200 | 25
CC(C)C[C@H](C(=O)O)[C@H](Cc1ccc(N2CC(N3CCNCC3)C2)nc1)c1nnn[nH]1 [Example 324, (2S)-4-methyl-2-[(1S)-2-[6-(3-piperazin-1-ylazetidin-1-yl)pyridin-3-yl]-1-(1H-tetrazol-5-yl)ethyl]pentanoic acid] |  |  |  | >200 | >200 | >200 |  |  |  |  |  | 
CC(C)C[C@H](C(=O)O)[C@H](Cc1ccc(N2CC(N3CCNCC3)C2)nc1)c1nnn[nH]1 [Example 334, (2S)-4-methyl-2-[(1S)-2-[6-(3-piperazin-1-ylazetidin-1-yl)pyridin-3-yl]-1-(1H-tetrazol-5-yl)ethyl]pentanoic acid] |  |  |  | 50 | 25 | 6.2 |  |  |  |  |  | 
CC(C)C[C@H](C(=O)O)[C@H](Cc1ccc(Oc2ccc(CCN)cc2)nc1)c1nn[nH]n1 [Example 371, (2S)-2-[(1S)-2-{6-[4-(2-aminoethyl)phenoxy]pyridin-3-yl}-1-(2H-tetrazol-5-yl)ethyl]-4-methylpentanoic acid] | 93 |  | 290 | 75 | 12.5 | 12.5 |  |  |  |  |  | 
CC(C)C[C@H](C(=O)O)[C@H](Cc1ccc(Oc2ccccc2N2CCNCC2)nc1)c1nn[nH]n1 [Example 372, (2S)-4-methyl-2-[(1S)-2-[6-(2-piperazin-1-ylphenoxy)pyridin-3-yl]-1-(2H-tetrazol-5-yl)ethyl]pentanoic acid] | 570 |  | 1600 | >200 | 75 | 38 |  |  |  |  |  | 
CC(C)C[C@H](C(=O)O)[C@H](Cc1ccc(Oc2ccccc2N2CCNCC2)nc1)c1nn[nH]n1 [Example 387, (2S)-4-methyl-2-[(1S)-2-[6-(2-piperazin-1-ylphenoxy)pyridin-3-yl]-1-(2H-tetrazol-5-yl)ethyl]pentanoic acid] | 880 |  | 2400 | >200 | >200 | >200 |  |  |  |  |  | 
CC(C)C[C@H](C(=O)O)[C@H](Cc1ccc(Oc2ccc(CCN)cc2)nc1)c1nn[nH]n1 [Example 392, (2S)-2-[(1S)-2-{6-[4-(2-aminoethyl)phenoxy]pyridin-3-yl}-1-(2H-tetrazol-5-yl)ethyl]-4-methylpentanoic acid] | 49 |  | 270 | 75 | 25 | 6.2 |  |  |  |  |  | 
CC(C)(C)[C@H](C(=O)O)[C@H](Cc1ccc(NCCO)nc1)c1nnn[nH]1.O=C(O)C(F)(F)F [Example 428, 2,2,2-trifluoroacetate] | 45.4 | 37.2 | 18.8 |  |  |  |  |  |  |  |  | 
CC(C)(C)[C@H](C(=O)O)[C@H](Cc1ccc(NCCO)nc1)c1nnn[nH]1.O=C(O)C(F)(F)F [Example 428] |  |  |  | 12.5 | 1.563 | 0.7813 |  |  |  |  |  | 
